In experiment [1] the target is T1, rLipB (Moesziomyces antarcticus, UniProt P41365).
T1 construct: recombinant CaLB secreted constitutively (PGK promoter) by Pichia pastoris; lyophilized culture supernatant, gift of LaBiM, not purified
T1 sequence (P41365 26-342): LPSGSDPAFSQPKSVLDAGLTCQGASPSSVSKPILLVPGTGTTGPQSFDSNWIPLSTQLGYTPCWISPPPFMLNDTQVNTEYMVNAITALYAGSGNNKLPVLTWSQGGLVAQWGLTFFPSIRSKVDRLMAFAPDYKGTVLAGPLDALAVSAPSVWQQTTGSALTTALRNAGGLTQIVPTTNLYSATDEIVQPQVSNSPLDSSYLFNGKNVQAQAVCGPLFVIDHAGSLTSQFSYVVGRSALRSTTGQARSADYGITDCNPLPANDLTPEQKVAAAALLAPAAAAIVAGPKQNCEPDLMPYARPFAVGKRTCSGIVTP
In words: spectrofluorimetric release of 4-methylumbelliferone by lyophilized culture supernatant. Type of experiment: biochemical. The settings on record: pH 7, 0.05 M phosphate, 45 °C; crude lyophilized supernatant.

The target in experiment [2] is T2, UhL (Ustilago hordei, UniProt I2G5F8).
T2 construct: gene UHOR_02134; codon-optimized gene in pPICZalphaA (alpha-factor secretion), C-terminal 6xHis, 330 residues expressed, 35 kDa predicted / 36 kDa by Western blot, N-glycosylated; Pichia pastoris X-33 culture supernatant, not purified
T2 sequence (I2G5F8 20-343): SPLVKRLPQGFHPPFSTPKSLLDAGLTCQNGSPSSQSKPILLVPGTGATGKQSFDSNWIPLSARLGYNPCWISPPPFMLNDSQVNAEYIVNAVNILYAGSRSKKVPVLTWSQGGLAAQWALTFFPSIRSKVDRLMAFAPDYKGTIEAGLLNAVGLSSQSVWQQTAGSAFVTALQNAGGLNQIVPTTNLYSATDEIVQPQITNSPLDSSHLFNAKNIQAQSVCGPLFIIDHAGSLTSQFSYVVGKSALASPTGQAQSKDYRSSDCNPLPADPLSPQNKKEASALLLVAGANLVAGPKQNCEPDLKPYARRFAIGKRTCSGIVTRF
In words: spectrofluorimetric release of 4-methylumbelliferone by culture supernatant. Type of experiment: biochemical. The settings on record: pH 7, 0.05 M phosphate, 45 °C; crude culture supernatant.

Experiment [3] addresses T2, UhL. Put plainly: hydrolysis halo on tributyrin agar plate of expressing clones (wild-type X-33 as control). The format is cell-based. Particulars: BMMY agar, pH 6.0, 30 °C, 4 days, methanol induction.

Molecules are shown by their SMILES.

Regarding `CCCCCCC(=O)Oc1ccc2c(C)cc(=O)oc2c1` [MUF-7, MUF-heptanoate], the relative activity entry in experiment [1] and in experiment [2] was “Both enzymes showed the highest activity with MUF-heptanoate (MUF-7)” in each case.
For `CCCC(=O)Oc1ccc2c(C)cc(=O)oc2c1` [C4, MUF-butyrate], in experiment [1], the relative activity entry is on record as “rLipB activity was increased, as the ester substrate chain length increased up to C7”.
In the case of `CCCC(=O)OCC(COC(=O)CCC)OC(=O)CCC` [tributyrin], in experiment [3], the “hydrolysis halo on tributyrin agar plate of expressing clones (wild-type X-33 as)” value is “expressed in Pichia pastoris, showing activity against tributyrin triglyceride”.

These data come from publication PMC9844320, “Novel CaLB-like Lipase Found Using ProspectBIO, a Software for Genome-Based Bioprospection” (BioTech, 2023).
